The source of these data is patent publication US8710252B2, “Hepodxilin analog enantiomers” (priority 2006, dated 2014).

“Also recorded” adds a separate entry of the source.

For one assay, the system named is washed human platelets. Kind of assay: I-BOP evoked human platelet aggregation in vitro with washed platelets. The class given is cell-based. The conditions noted are these: for IC50: washed human platelets, 5 ng I-BOP, compounds are methyl esters, read-out: IC50, inhibition of I-BOP evoked human platelet aggregation. The protocol:
Washed human platelets were prepared as previously described (Pace-Asciak et al., 2002). The aggregation of platelets was carried out in a conventional 4-well aggregometer with stirring of the suspension maintained at 37° C. The platelet suspension was caused to aggregate with a thromboxane stable analog, I-BOP. The isolated enantiomer compounds and their respective racemates, PBT-3 and PBT-4, were added at various concentrations to cuvettes containing 375×10^6 platelets/ml, 1 min prior to the addition of 5 ng I-BOP (Cayman Chemicals, Ann Arbor, Mich.). Aggregation was monitored for an additional 5 min.

Assay [1] relates to human leukemic K562 cells. Description: Inhibition of 3H-methyl thymidine incorporation (cell proliferation) in K562 cells. The class given is cell-based. The conditions noted are these: for IC50: 6 h treatment, compounds are methyl esters. The protocol:
The human leukemic K562 cell line was established as previously reported (Qiao et al., 2003). Cells were maintained as suspension cultures in RPMI 1640 medium supplemented with 100 1.1/ml penicillin G, 100 μg/ml streptomycin, 10% (v/v) […] in a humidified atmosphere of 5% CO2 at 37° C. Cell viability was assessed by the exclusion of Trypan blue. Incorporation of ^3H-methyl thymidine into cell DNA was used as an assay for cell proliferation. Cells ([…]) were starved for 12 h, and were subsequently treated with the test compounds. Compounds A, B, C and D were made up at various concentrations in DMSO ([…] A, B, C and D. Concentrations were doubled for racemates PBT-3 and PBT-4) and 1 of these solutions was added/ml volume of cells. Cells were suspended in RPMI 1640 medium. At 6 h post-treatment at 37° C. the cells were fixed and denatured essentially as described in Qiao et al. (2003), harvested and passed through Whatman GF/C glass filters. The filters were washed and counted for radioactivity.

The target of assay [2] is T1, Ga14-DBD-PPAR gamma-LBD fusion protein (Homo sapiens, UniProt P37231).
T1 construct: expressed in transfected cells; host or cells: mouse embryonic fibroblasts (MEFs) or ME3 cells
T1 sequence (P37231 238-503 limits assumed): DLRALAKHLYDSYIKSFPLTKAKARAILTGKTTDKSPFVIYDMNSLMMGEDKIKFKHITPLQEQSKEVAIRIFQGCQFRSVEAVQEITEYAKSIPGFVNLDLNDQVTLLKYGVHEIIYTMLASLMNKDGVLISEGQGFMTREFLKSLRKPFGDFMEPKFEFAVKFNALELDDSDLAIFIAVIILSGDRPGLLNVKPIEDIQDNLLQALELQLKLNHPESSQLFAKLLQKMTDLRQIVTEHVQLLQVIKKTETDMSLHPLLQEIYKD
Description: PPAR gamma transactivation assay (Gal4-PPAR gamma LBD / UASx4-TK-luc reporter). The class given is cell-based. The source says:
The UASx4-TK-luc reporter construct (where UAS refers to “upstream activator sequence”) contains four Ga14-responsive elements. The plasmid Ga14-PPAR gammaLBD encodes a Ga14-DBD-PPAR gamma-LBD fusion protein (i.e. the DNA-binding domain, DBD, of Ga14 fused to the ligand-binding domain, LBD, of PPAR gamma) capable of transactivating the UASx4-TK-luc reporter plasmid by binding to the UAS. The CMV-beta-galactosidase plasmid (where CMV is cytomegalovirus) was used for normalization of experimental values.
The cells were replated, typically in 24 well plates, so that at the time of transfection the cells were 50-70% confluent.
Briefly, per well in a 24 well plate, UASx4TKIuc (0.2 microg) Ga14-PPAR gammaLBD (or pM-hPPAR gamma-LBD; 0.1 microg) and CMV-beta-galactosidase (0.05 microg) in 30 μL DMEM (free of serum and antibiotics) was mixed with 30 microL DMEM (free of serum and antibiotics) containing 1 microL metafectenein. The mixture was incubated at room temperature for 20 min to allow formation of nucleic acid-lipid complexes and then approximately 60 micros was added to each well containing the 50-70% confluent cells. […] Cells were harvested after 12-24 hours and luciferase and beta-galactosidase activities were measured according to standard protocols.
Each experiment was carried out with triplicate samples with 0.1, 1 or 10 microM racemate or purified enantiomer.

In assay [3] the test system is Caspase-3 cleavage in K562 cells. Kind of assay: Caspase-3 cleavage in K562 cells, Western blot. It counts as cell-based, human. The following applies: 10 uM, 6 h; for Cleavage of caspase-3: FIG. 7. The protocol: Cell culture: Human leukemia K562 cells, obtained from ATCC (American Type Culture Collection), were maintained in RPMI 1640 medium containing 100 units/ml penicillin G, 100 μg/ml streptomycin, 10% (v/v) fetal calf serum in a humidified atmosphere with 5% CO2 at 37° C. The ability of the cells to exclude trypan Blue dye was used to assess cell viability.
Cell treatment: K562 cells were stored in 0.5% FBS for 15 min before the experiment. The cells, 6×10^5, were treated with DMSO as vehicle, or with PBT-3, PBT-4, or compounds A, B, C and D at 10 uM/dish (8 ml). Gleevec™ (STI) was used at 5 μM/dish. All experiments were without FBS and treatment lasted 6 h at 37° C. Treatment was terminated by washing the cells with ice-cold PBS buffer by centrifugation at 500×g for 5 min. Cells were lysed in buffer containing 20 mM Tris-HCl buffer, pH 7.4, 150 NaCl, 1 mM EDTA, 1 mM EGTA, 1% Triton X-100 2.5 mM sodium pyrophosphate, 1 mM beta-glycerophosphate, 1 mM sodium orthovanadate, 1 mM PMSF and 1 μM leupeptin/1 μM Aprotinin/1 μM pepstain A, on ice for 30 min. The lysates were clarified by centrifugation at 15,000×g for 15 min at 4° C. Lysates were subjected to protein assay (BCA, Pierce) and kept at −80° C.
Western blot: Thirty micrograms of protein from each sample were taken, and SDS-PAGE sample loading buffer was added. The mixture was boiled for 5 min. After centrifugation, the samples were loaded onto 15% SDS-PAGE gel and the gel was run (BioRad Protein II) for 2-3 h at 20 mA. The protein was transferred to a Trans-blot Nitrocellulose membrane (Millipore). Protein bands on the membranes were checked visually with Ponceau S-staining to ensure equivalent protein load/transfer comparing different samples. Membranes were blocked with 5% non-fat dry milk in PBS containing 0.5% Tween-20 for 1 h at room temperature, and then incubated with 1:1000 dilution of anti-caspase-3 antibody (BD Transduction Laboratories, Mississauga, Canada) overnight at 4° C. Secondary antibody of horseradish peroxidase anti-mouse antibody was used at 1:2000 dilution. Bound antibodies were detected by using enhanced chemilluminescence (ECL kit, Amersham Pharmacia Biotech) and the membranes were exposed to Hyper film for ECL detection. The same membrane was stripped by placing in buffer containing 62.5 mM Tris-HCl, pH 6.8/2% SDS/100 mM beta-mercaptoethanol at 50° C. for 30 min. The membrane was washed 3 times with PBS containing 0.5% Tween-20. The membrane was blocked by PBS buffer containing 0.5% Tween-20 and 5% skim milk. The anti-tubulin antibody (Santa Cruz, Calif.) was diluted 1:1000 and membrane analyzed by ECL as described above.
In general terms: A western blot detects proteins with antibodies after separation by electrophoresis.

The term IC50 denotes the concentration that inhibits the measured activity by half. `CCCCC/C=C\C[C@H]1C[C@@H]1[C@H](O)/C=C\C/C=C\CCCC(=O)OC` [Compound A, 10R-hydroxy-11S,12S-cyclopropyl-eicosa-5Z,8Z,14Z-trienoic acid methyl ester]: the “Potency relative to Compound B, inhibition of platelet aggregation” value in the assay with washed human platelets (I-BOP evoked aggregation) is listed as “nearly four times as active; also recorded: about four times more potent”. Besides, the “Potency relative to racemic PBT-3, inhibition of platelet aggregation” value in the assay on washed human platelets (I-BOP evoked aggregation) is “twice as potent”; in the assay on washed human platelets (I-BOP evoked aggregation, listed as compound A), 2 fold. Moreover, the IC50 in the assay with washed human platelets turned out to be 27 ± 7 nM; in assay [1] it was 3600 nM. In assay [2], the “PPAR gamma transactivation, result in words” value is “no apparent difference”. For the same molecule, the “PPAR Activation as % of positive control (Avandia)” value (from here on “PPAR Activation as %”) in assay [2] (Experiment 1, 0.1 microM) was 11 +/− 4 % of positive control (Avandia); in assay [2] (Experiment 1, 1 microM), 14 +/− 4 % of positive control (Avandia); in assay [2] (Experiment 1, 10 microM) it was 63 +/− 34 % of positive control (Avandia); in assay [2] (Experiment 2, 0.1 microM), 4 +/− 1 % of positive control (Avandia); in assay [2] (Experiment 2, 1 microM), 11 +/− 1 % of positive control (Avandia); in assay [2] (Experiment 2, 10 microM) it was 34 +/− 1 % of positive control (Avandia). Moreover, the “PPAR Activation as %” value in assay [2] (Experiment 3, 0.1 microM) is on record as 8 +/− 2 % of positive control (Avandia); in assay [2] (Experiment 3, 1 microM), 12 +/− 1 % of positive control (Avandia); in assay [2] (Experiment 3, 10 microM) it was 27 +/− 5 % of positive control (Avandia). Also, the “Cleavage of caspase-3 compared with Compound B” value in assay [3] is given as “more active than Compound B”. Besides, the “Cleavage of caspase-3” value in assay [3] is “increased cleavage of caspase-3”.

For the molecule `CCCCC/C=C\CC1CC1C(O)/C=C\C/C=C\CCCC(=O)OC` (stereo not drawn) [Compound B, 10S-hydroxy-11R,12R-cyclopropyl-eicosa-5Z,8Z,14Z-trienoic acid methyl ester], the IC50 in the assay with washed human platelets turned out to be 101 ± 27 nM; in assay [1], 7600 nM. Further, the “PPAR gamma transactivation, result in words” value in assay [2] is recorded as “no apparent difference”. For the same molecule, the “PPAR Activation as %” value is recorded as 11 +/− 3 % of positive control (Avandia) in assay [2] (Experiment 1, 0.1 microM); 21 +/− 3 % of positive control (Avandia) in assay [2] (Experiment 1, 1 microM); 44 +/− 11 % of positive control (Avandia) in assay [2] (Experiment 1, 10 microM); 4 +/− 1 % of positive control (Avandia) in assay [2] (Experiment 2, 0.1 microM); 10 +/− 1 % of positive control (Avandia) in assay [2] (Experiment 2, 1 microM); 35 +/− 11 % of positive control (Avandia) in assay [2] (Experiment 2, 10 microM). Moreover, the “PPAR Activation as %” value in assay [2] (Experiment 3, 0.1 microM) is recorded as 10 +/− 3 % of positive control (Avandia); in assay [2] (Experiment 3, 1 microM), 16 +/− 6 % of positive control (Avandia); in assay [2] (Experiment 3, 10 microM), 30 +/− 10 % of positive control (Avandia). The “Cleavage of caspase-3” value in assay [3] is reported as “increased cleavage of caspase-3”.

Take `CCCCC/C=C\CC1CC1C(O)/C=C\C/C=C\CCCC(=O)OC` (stereo not drawn) [Compound C, 10R-hydroxy-11R,12R-cyclopropyl-eicosa-5Z,8Z,14Z-trienoic acid methyl ester]: the IC50 came to 60 ± 12 nM with washed human platelets and 4000 nM in assay [1]. Moreover, the “Activity relative to Compound D, cell proliferation assay” value in assay [1] was found to be 1.3 fold. Besides, the “PPAR Activation as %” value is 14 +/− 4 % of positive control (Avandia) in assay [2] (Experiment 1, 0.1 microM); 16 +/− 3 % of positive control (Avandia) in assay [2] (Experiment 1, 1 microM); 38 +/− 8 % of positive control (Avandia) in assay [2] (Experiment 1, 10 microM); 4 +/− 1 % of positive control (Avandia) in assay [2] (Experiment 2, 0.1 microM); 6 +/− 1 % of positive control (Avandia) in assay [2] (Experiment 2, 1 microM); 14 +/− 1 % of positive control (Avandia) in assay [2] (Experiment 2, 10 microM). Besides, the “PPAR Activation as %” value in assay [2] (Experiment 3, 0.1 microM) was 9 +/− 3 % of positive control (Avandia); in assay [2] (Experiment 3, 1 microM), 7 +/− 1 % of positive control (Avandia); in assay [2] (Experiment 3, 10 microM) it was 17 +/− 3 % of positive control (Avandia). For the same molecule, the “Cleavage of caspase-3” value in assay [3] is recorded as “increased cleavage of caspase-3”.
